# Source: PubChem BioAssay (NCI)
#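 A five-concentration, 48-hour dose response in 96-well plates underlies each endpoint, interpolated linearly between surrounding concentrations. GI50 marks 50% less growth. TGI: total growth inhibition.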
# Legend:
# Experiment in all cases: NCI-60 cell line screen, 48 h
# [1] = test system: SK-MEL-2 melanoma
# [2] = test system: UACC-257 melanoma
# [3] = test system: RXF 393 renal
# [4] = test system: SF-268 CNS
# [5] = test system: MDA-MB-435
# [6] = test system: OVCAR-8 ovarian
# [7] = test system: HS 578T breast
# [8] = test system: CCRF-CEM leukemia
# [9] = test system: HT29 colon
# [10] = test system: PC-3 prostate
# [11] = test system: OVCAR-5 ovarian
# [12] = test system: SN12C renal
# [13] = test system: CAKI-1 renal
# [14] = test system: KM12 colon
# [15] = test system: NCI/ADR-RES ovarian
# [16] = test system: MDA-MB-231 breast
# [17] = test system: ACHN renal
# [18] = test system: T-47D breast
# [19] = test system: DU-145 prostate
# [20] = test system: SR leukemia
# [21] = test system: LOX IMVI melanoma
# [22] = test system: NCI-H23 lung
# [23] = test system: SK-OV-3 ovarian
# [24] = test system: COLO 205 colon
# [25] = test system: EKVX NSCLC
# [26] = test system: U251 CNS
# [27] = test system: OVCAR-3 ovarian
# [28] = test system: NCI-H226 lung
# [29] = test system: UACC-62 melanoma
# [30] = test system: NCI-H522 lung
# [31] = test system: SK-MEL-28 melanoma
# [32] = test system: SW-620 colon
# [33] = test system: HOP-62 NSCLC
# [34] = test system: BT-549 breast
# [35] = test system: RPMI-8226 leukemia
# [36] = test system: OVCAR-4 ovarian
# [37] = test system: MALME-3M melanoma
# [38] = test system: IGROV1 ovarian
# [39] = test system: UO-31 renal
# [40] = test system: HCT-15 colon
# [41] = test system: SF-539 CNS
# [42] = test system: A498 renal
# [43] = test system: A549 NSCLC
# [44] = test system: SF-295 CNS
# [45] = test system: 786-0 renal
# [46] = test system: MDA-MB-468 breast
# [47] = test system: TK-10 renal
# [48] = test system: MCF7 breast
# [49] = test system: SK-MEL-5 melanoma
# [50] = test system: SNB-19 CNS
# [51] = test system: HCC-2998 colon
smiles,measurement,setting,value
CCN1CCN(Cc2ccc(C(=O)Nc3cccc(C#Cc4cccc5[nH]nc(N)c45)c3)cc2C(F)(F)F)CC1,GI50,[1],1470 nM
same,TGI,[1],2930 nM
same,GI50,[2],1470 nM
same,TGI,[2],2860 nM
same,GI50,[3],1100 nM
same,TGI,[3],2490 nM
same,GI50,[4],1430 nM
same,TGI,[4],3330 nM
same,GI50,[5],1230 nM
same,TGI,[5],2500 nM
same,GI50,[6],1430 nM
same,TGI,[6],2800 nM
same,GI50,[7],2140 nM
same,TGI,[7],6680 nM
same,GI50,[8],1600 nM
same,TGI,[8],3620 nM
same,GI50,[9],1100 nM
same,TGI,[9],2450 nM
same,GI50,[10],1300 nM
same,TGI,[10],2780 nM
same,GI50,[11],1470 nM
same,TGI,[11],3030 nM
same,GI50,[12],1180 nM
same,TGI,[12],2480 nM
same,GI50,[13],1450 nM
same,TGI,[13],2780 nM
same,GI50,[14],1660 nM
same,TGI,[14],3270 nM
same,GI50,[15],1800 nM
same,TGI,[15],4040 nM
same,GI50,[16],919 nM
same,TGI,[16],2140 nM
same,GI50,[17],598 nM
same,TGI,[17],1870 nM
same,GI50,[18],2250 nM
same,TGI,[18],6180 nM
same,GI50,[19],1530 nM
same,TGI,[19],3120 nM
same,GI50,[20],1780 nM
same,TGI,[20],4590 nM
same,GI50,[21],739 nM
same,TGI,[21],1990 nM
same,GI50,[22],1410 nM
same,TGI,[22],2760 nM
same,GI50,[23],2190 nM
same,TGI,[23],4560 nM
same,GI50,[24],1190 nM
same,TGI,[24],2720 nM
same,GI50,[25],1350 nM
same,TGI,[25],2790 nM
same,GI50,[26],1510 nM
same,TGI,[26],2850 nM
same,GI50,[27],1180 nM
same,TGI,[27],2860 nM
same,GI50,[28],1190 nM
same,TGI,[28],3600 nM
same,GI50,[29],1320 nM
same,TGI,[29],2620 nM
same,GI50,[30],1100 nM
same,TGI,[30],2400 nM
same,GI50,[31],1630 nM
same,TGI,[31],3000 nM
same,GI50,[32],1230 nM
same,TGI,[32],2810 nM
same,GI50,[33],1730 nM
same,TGI,[33],3640 nM
same,GI50,[34],1640 nM
same,TGI,[34],3060 nM
same,GI50,[35],1590 nM
same,TGI,[35],3920 nM
same,GI50,[36],1040 nM
same,TGI,[36],5300 nM
same,GI50,[37],509 nM
same,TGI,[37],1820 nM
same,GI50,[38],965 nM
same,TGI,[38],2480 nM
same,GI50,[39],1430 nM
same,TGI,[39],2930 nM
same,GI50,[40],721 nM
same,TGI,[40],2020 nM
same,GI50,[41],533 nM
same,TGI,[41],1760 nM
same,GI50,[42],2540 nM
same,TGI,[42],4210 nM
same,GI50,[43],1300 nM
same,TGI,[43],2600 nM
same,GI50,[44],1430 nM
same,TGI,[44],2820 nM
same,GI50,[45],1470 nM
same,TGI,[45],2840 nM
same,GI50,[46],1030 nM
same,TGI,[46],2320 nM
same,GI50,[47],1890 nM
same,TGI,[47],3380 nM
same,GI50,[48],1610 nM
same,TGI,[48],3050 nM
same,GI50,[49],1540 nM
same,TGI,[49],2900 nM
same,GI50,[50],1950 nM
same,TGI,[50],3630 nM
same,GI50,[51],1300 nM
same,TGI,[51],2560 nM
